Structures are written as SMILES.

Some targets named below: Carbonic anhydrase 9 (Homo sapiens, UniProt Q16790); Carbonic anhydrase 1 (Homo sapiens, UniProt P00915); Carbonic anhydrase 3 (Homo sapiens, UniProt P07451); Carbonic anhydrase 7 (Homo sapiens, UniProt P43166); Carbonic anhydrase 12 (Homo sapiens, UniProt O43570).
For the next experiment, the target named is T1, Carbonic anhydrase 15 (Mus musculus, UniProt Q99N23).
T1 sequence (Q99N23 whole entry): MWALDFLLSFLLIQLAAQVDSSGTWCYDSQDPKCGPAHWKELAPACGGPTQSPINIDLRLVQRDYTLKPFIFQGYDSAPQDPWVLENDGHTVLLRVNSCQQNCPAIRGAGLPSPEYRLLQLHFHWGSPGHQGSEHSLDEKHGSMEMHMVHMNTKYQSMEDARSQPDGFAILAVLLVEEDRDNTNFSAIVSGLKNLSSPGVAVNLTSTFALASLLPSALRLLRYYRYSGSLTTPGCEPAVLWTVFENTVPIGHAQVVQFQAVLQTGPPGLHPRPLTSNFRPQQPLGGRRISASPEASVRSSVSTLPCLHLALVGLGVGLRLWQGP

Experiment [1] has as its target Carbonic anhydrase 5A, mitochondrial (Homo sapiens, UniProt P35218). Briefly: Inhibition of human recombinant carbonic anhydrase 5a after 15 mins by stopped-flow CO2 hydration assay.
Another experiment concerns the target Carbonic anhydrase 13 (Homo sapiens, UniProt Q8N1Q1). Briefly: Inhibition of human recombinant carbonic anhydrase 13 after 15 mins by stopped-flow CO2 hydration assay.
In the next experiment the target is Carbonic anhydrase 14 (Homo sapiens, UniProt Q9ULX7). The experiment is described as follows: Inhibition of human recombinant carbonic anhydrase 14 after 15 mins by stopped-flow CO2 hydration assay.
Chain of Carbonic anhydrase 14 (Q9ULX7 whole entry): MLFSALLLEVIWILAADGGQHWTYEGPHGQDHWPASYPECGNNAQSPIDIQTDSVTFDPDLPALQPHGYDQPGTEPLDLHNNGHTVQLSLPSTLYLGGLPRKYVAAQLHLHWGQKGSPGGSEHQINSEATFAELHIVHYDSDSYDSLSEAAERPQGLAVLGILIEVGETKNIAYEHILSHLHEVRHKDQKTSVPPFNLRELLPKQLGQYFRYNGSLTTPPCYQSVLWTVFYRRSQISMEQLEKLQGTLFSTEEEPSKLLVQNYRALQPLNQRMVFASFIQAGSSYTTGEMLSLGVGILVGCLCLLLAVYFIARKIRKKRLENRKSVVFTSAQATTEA
For experiment [2], the target named is Carbonic anhydrase 5B, mitochondrial (Homo sapiens, UniProt Q9Y2D0).
Chain of Carbonic anhydrase 5B, mitochondrial (Q9Y2D0 whole entry): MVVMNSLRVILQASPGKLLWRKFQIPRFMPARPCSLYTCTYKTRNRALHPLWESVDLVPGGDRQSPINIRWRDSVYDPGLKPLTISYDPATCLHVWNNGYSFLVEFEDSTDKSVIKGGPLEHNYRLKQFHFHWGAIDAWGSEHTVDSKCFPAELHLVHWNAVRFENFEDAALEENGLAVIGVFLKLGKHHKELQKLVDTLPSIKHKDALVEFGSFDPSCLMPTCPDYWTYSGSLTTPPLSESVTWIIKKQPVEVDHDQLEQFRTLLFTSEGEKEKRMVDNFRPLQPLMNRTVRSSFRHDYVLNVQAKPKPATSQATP

Chain of Carbonic anhydrase 12 (O43570 whole entry): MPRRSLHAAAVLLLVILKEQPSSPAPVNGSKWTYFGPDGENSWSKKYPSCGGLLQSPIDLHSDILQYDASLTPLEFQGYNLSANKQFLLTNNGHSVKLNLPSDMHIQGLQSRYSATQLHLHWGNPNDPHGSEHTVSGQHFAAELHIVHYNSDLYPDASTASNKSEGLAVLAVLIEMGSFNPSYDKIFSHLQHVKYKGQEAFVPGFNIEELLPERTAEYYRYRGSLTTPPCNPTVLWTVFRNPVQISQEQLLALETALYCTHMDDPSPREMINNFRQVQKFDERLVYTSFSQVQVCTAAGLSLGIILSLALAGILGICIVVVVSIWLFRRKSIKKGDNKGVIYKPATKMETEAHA
Chain of Carbonic anhydrase 3 (P07451 whole entry): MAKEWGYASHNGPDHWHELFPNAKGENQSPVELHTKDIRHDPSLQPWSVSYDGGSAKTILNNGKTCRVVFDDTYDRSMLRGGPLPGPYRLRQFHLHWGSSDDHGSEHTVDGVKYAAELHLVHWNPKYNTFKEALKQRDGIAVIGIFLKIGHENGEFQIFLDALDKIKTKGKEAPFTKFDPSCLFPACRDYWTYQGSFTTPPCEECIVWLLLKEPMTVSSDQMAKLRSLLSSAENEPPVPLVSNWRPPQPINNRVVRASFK
Chain of Carbonic anhydrase 7 (P43166 whole entry): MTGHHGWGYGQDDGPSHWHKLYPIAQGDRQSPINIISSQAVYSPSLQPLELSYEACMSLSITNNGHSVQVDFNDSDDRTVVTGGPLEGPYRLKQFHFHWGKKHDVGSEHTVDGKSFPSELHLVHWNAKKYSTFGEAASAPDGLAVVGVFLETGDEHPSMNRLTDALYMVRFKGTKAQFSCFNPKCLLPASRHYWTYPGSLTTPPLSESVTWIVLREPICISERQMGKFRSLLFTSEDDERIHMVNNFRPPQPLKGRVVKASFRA
Chain of Carbonic anhydrase 13 (Q8N1Q1 whole entry): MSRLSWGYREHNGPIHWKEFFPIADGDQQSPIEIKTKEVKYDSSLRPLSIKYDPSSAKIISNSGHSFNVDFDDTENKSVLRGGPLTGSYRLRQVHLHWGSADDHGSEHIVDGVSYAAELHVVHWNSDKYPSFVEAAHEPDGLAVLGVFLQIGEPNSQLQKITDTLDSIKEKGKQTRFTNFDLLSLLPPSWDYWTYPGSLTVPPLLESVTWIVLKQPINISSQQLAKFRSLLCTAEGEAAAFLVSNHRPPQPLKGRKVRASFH
Chain of Carbonic anhydrase 1 (P00915 whole entry): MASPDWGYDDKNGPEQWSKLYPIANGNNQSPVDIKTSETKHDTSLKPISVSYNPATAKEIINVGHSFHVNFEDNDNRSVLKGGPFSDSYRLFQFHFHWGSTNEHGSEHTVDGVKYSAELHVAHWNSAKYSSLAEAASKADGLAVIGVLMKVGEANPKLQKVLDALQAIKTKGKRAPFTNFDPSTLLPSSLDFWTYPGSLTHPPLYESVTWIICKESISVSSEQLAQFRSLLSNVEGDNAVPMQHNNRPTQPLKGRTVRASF
Chain of Carbonic anhydrase 5A, mitochondrial (P35218 whole entry): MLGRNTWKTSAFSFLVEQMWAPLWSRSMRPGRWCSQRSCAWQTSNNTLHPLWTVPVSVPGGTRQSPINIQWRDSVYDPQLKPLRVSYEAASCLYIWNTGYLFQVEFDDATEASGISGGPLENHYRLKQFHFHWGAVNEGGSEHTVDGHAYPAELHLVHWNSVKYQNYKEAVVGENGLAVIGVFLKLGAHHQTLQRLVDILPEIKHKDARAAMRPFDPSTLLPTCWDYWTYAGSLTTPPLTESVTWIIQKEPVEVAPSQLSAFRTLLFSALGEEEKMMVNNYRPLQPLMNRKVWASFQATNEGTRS

By Ki is commonly meant a dissociation constant, usually derived from enzyme kinetics or from competition with a known ligand. Take `NS(=O)(=O)c1nnc(NC(=O)CC23CC4CC(CC(C4)C2)C3)s1`: the Ki at Carbonic anhydrase 9 was 49.5 nM; on Carbonic anhydrase 1 it was 362 nM; at Carbonic anhydrase 3, 410000 nM; on Carbonic anhydrase 7, 48 nM; at Carbonic anhydrase 12 it was 4.7 nM; on Carbonic anhydrase 15, 719 nM.
Consider `Cc1ccc(-c2cc(C(F)(F)F)nn2-c2ccc(S(N)(=O)=O)cc2)cc1` [CELECOXIB], for which the Ki in [1] was 794 nM; on Carbonic anhydrase 13, 98 nM; at Carbonic anhydrase 14 it was 689 nM; on Carbonic anhydrase 3, 70000 nM; in experiment [2], 93 nM.
Turning to `NS(=O)(=O)c1nnc(NC(=O)C23CC4CC(CC(C4)C2)C3)s1`, the Ki at Carbonic anhydrase 9 is 6.4 nM; at Carbonic anhydrase 1, 883 nM; on Carbonic anhydrase 3, 300000 nM; on Carbonic anhydrase 7, 35 nM; on Carbonic anhydrase 12, 2.8 nM; at Carbonic anhydrase 15 it was 652 nM.
Turning to `Nc1c(F)cc(S(=O)(=O)Nc2nnc(S(N)(=O)=O)s2)cc1Cl`, the inhibitory constant (Ki) turned out to be 2.9 nM on Carbonic anhydrase 7, 13 nM on Carbonic anhydrase 12 and 30 nM at Carbonic anhydrase 15.
On to `Cc1cc(C)[n+](CCc2ccc(S(N)(=O)=O)cc2)c(C)c1`, for which the inhibition constant (Ki) was 300000 nM on Carbonic anhydrase 3 and 34 nM at Carbonic anhydrase 15.
Turning to `Nc1nnc(S(N)(=O)=O)s1`, the Ki was found to be 79 nM at Carbonic anhydrase 13, 150000 nM on Carbonic anhydrase 3 and 34 nM on Carbonic anhydrase 12.

The record behind these values is ChEMBL document CHEMBL1208748 (Bioorg Med Chem Lett, 2010).
